In patent US11124516B2, “Pyrrolo[1,2-A]pyrimidinyl carboxamide compounds and their use in the treatment of medical disorders” (Bial—Biotech Investments, Inc., priority 2016, dated 2021):
Values after ≈ are worked out from the molar mass of the structure shown.

What was measured:
[1] = molecular target: T1, glucocerebrosidase (Gcase) (Homo sapiens, UniProt P04062); experiment: Glucocerebrosidase (Gcase) activation assay, 4-methylumbelliferyl-beta-D-glucopyranoside substrate, fluorescence; assay type: biochemical; conditions: 10 nM GCase, 100 nM saposin C; for activation at 0.1 µM / activation at 1 µM: 0.25 h; for activation at 0.1 µM: pH 4.7, test compound at 0.1 μM, read-out: Percent Gcase Activation 0.1 μM Test Compound; for activation at 1 µM: pH 4.7, test compound at 1.0 μM, read-out: Percent Gcase Activation 1 μM Test Compound; for Percent Gcase Activation 0.1 μM Test Compound: test compound at 0.1 μM; for Percent Gcase Activation 0.1 μM Test Compound / Percent Gcase Activation 1 μM Test Compound: pH 4.7; for Percent Gcase Activation 1 μM Test Compound: test compound at 1.0 μM
T1 sequence (P04062 40-536): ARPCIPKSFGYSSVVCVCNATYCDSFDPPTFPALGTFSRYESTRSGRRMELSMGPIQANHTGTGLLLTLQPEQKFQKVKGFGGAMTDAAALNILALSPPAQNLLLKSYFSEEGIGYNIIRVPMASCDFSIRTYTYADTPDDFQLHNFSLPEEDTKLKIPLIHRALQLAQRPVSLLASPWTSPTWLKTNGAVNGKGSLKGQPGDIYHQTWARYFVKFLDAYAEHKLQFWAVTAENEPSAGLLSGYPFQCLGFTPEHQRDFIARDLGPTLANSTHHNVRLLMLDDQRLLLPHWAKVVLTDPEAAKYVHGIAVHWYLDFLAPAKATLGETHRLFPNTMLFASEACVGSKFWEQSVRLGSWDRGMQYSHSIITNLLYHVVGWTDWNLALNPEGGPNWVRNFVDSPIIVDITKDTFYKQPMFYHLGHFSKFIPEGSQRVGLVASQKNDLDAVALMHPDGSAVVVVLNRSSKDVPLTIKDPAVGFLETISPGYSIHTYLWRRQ
Protocol: The ability of exemplary compounds to activate glucocerebrosidase (Gcase) was measured.
A 484 μL aliquot of a 1.0 mg/mL solution of phosphatidylserine (PS) (Sigma P7769) in chloroform was evaporated under a stream of nitrogen for 1 hour. The lipid film was dissolved over 4 minutes of vigorous vortexing in 40 mL of 176 mM K2HPO4/50 mM citric acid (pH 4.7) containing 7.5 μL of triton X-100, resulting in a mixed micellar preparation with a composition of 0.32 mM triton and 0.37 mol % PS. 4-Methylumbelliferyl-beta-D-glucopyranoside (ACROS-337025000) was dissolved in the micellar solution to a final concentration of 2 mM for use as the reaction substrate.
Test compounds were diluted to the desired concentrations with dimethylsulfoxide (DMSO) from 10 mM stocks, and 0.41 μL of the DMSO compound mixture was added to 100 μL of micellar solution containing 10 nM GCase and 100 nM saposin C (Enzo ALX-201-262-C050). Pre-incubation was allowed to occur for 30 minutes at room temperature, after which the reaction was initiated by combining 25 μL of substrate solution with 25 μL of compound/GCase/saposin mixture. The reaction proceeded for 15 minutes at room temperature and was stopped by adding 150 μL of 1M glycine, pH 12.5. The endpoint of the reaction was monitored by measuring fluorescence intensity (excitation: 365 nm; emission: 440 nm) on a SpectraMax i3 instrument (Molecular Devices). Test compounds were screened at 1.0 and 0.1 μM final concentration, and subsequent 8-point dose response curves were obtained using 3-fold dilutions from a maximum final concentration of 5 μM.
For experiments in which the test compound was used at a concentration of 1.0 μM, the symbol “+” indicates less than 30% Gcase activation; the symbol “++” indicates Gcase activation in the range of 30% up to 60%; and the symbol “+++” indicates Gcase activation greater than 60%. For experiments in which the test compound was used at a concentration of 0.1 μM, the symbol “*” indicates less than 10% Gcase activation; the symbol “**” indicates Gcase activation in the range of 10% up to 20%; and the symbol “***” indicates greater than 20% Gcase activation.

[2] = Compound solubility in water; assay type: physicochemical

activation at 0.1 µM [1] [%]	activation at 1 µM [1] [%]	solubility [2] [µg/mL]	Percent Gcase Activation 1 μM Test Compound [1]	Compound Solubility in Water [2] [µg/mL]	SMILES	Percent Gcase Activation 0.1 μM Test Compound [1]
			+++ (Gcase activation greater than 60%)	0.7	Cc1cc(C)n2ccc(C(=O)NC(C)c3cccc4ccccc34)c2n1 (stereo not drawn) [IV-47]	*** (greater than 20% Gcase activation)
< 10	< 30	23.2 (≈ 72 µM)			CCC(NC(=O)c1ccn2c(C)cc(C)nc12)c1cc(C)ccn1 (stereo not drawn) [IV-54]	
10 to 20	> 60	1.3 (≈ 3.8 µM)			Cc1cc(C)n2ccc(C(=O)NC(C)(C)c3ccccc3Cl)c2n1 [IV-22]	
> 20	> 60	0.3 (≈ 0.812 µM)			CCOc1ccc(C(CC)NC(=O)c2ccn3c(C)cc(C)nc23)cc1F (stereo not drawn) [IV-51]	
10 to 20	> 60	7.9 (≈ 22.1 µM)			CCc1cc(C)n2ccc(C(=O)N[C@H]3CC[C@H](OC(C)(C)C)CC3)c2n1 [IV-6]	
< 10	< 30	1.5 (≈ 4.06 µM)			Cc1nc2c(C(=O)N[C@H]3CC[C@H](OC(C)(C)C)CC3)ccn2c2c1CCC2 [III-70]	
> 20	> 60	0.6 (≈ 1.68 µM)			Cc1cc(C)n2ccc(C(=O)NC(C)(C)c3cccc4ccccc34)c2n1 [IV-48]	
> 20	> 60	0.4 (≈ 0.961 µM)			Cc1cc(-c2cccc(C(N)=O)c2)nc2c(C(=O)NC(C3CC3)C(F)(F)F)ccn12 (stereo not drawn) [IV-7]	
> 20	> 60	4.2 (≈ 10.8 µM)			COCc1cc(C)nc2c(C(=O)N[C@H]3CC[C@H](OCC(C)(C)C)CC3)ccn12 [IV-2]	
> 20	> 60	2.9 (≈ 7.75 µM)			Cc1cc(-c2cccnc2)nc2c(C(=O)NC(C3CC3)C(F)(F)F)ccn12 (stereo not drawn) [III-55]	
> 20	> 60	1.9 (≈ 5.57 µM)			COc1ccc(C(C)NC(=O)c2ccn3c(C)cc(C)nc23)cc1F (stereo not drawn) [IV-61]	
> 20	> 60	3.1 (≈ 9.96 µM)			Cc1cc(C)n2ccc(C(=O)NC(C3CC3)C(F)(F)F)c2n1 (stereo not drawn) [IV-16]	
10 to 20	> 60	8.1 (≈ 22.7 µM)			CCc1cc(C)nc2c(C(=O)N[C@H]3CC[C@H](OC(C)(C)C)CC3)ccn12 [IV-5]	
> 20	> 60	1.1 (≈ 3.17 µM)			Cc1cccc(C2CC2C(C)NC(=O)c2ccn3c(C)cc(C)nc23)c1 (stereo not drawn) [IV-42]	
< 10	> 60	5.3 (≈ 16.4 µM)			COc1ccc([C@@H](C)NC(=O)c2ccn3c(C)cc(C)nc23)cc1 [IV-24]	
> 20	> 60	5.1 (≈ 17 µM)			Cc1cc(C)n2ccc(C(=O)NC(C)C3CCCCC3)c2n1 (stereo not drawn) [III-62]	
> 20	> 60	1.2 (≈ 3.41 µM)			C#Cc1ccc(NC(=O)c2ccn3c(C)cc(-c4cccnc4)nc23)cc1 [III-61]	
10 to 20	> 60	8.4 (≈ 20.3 µM)			CCCCO[C@H]1CC[C@H](NC(=O)c2ccn3c(C)cc(N4CCOCC4)nc23)CC1 [IV-15]	
		0.2 (≈ 0.541 µM)			Cc1cc(C)n2ccc(C(=O)NC(Cc3ccccc3)c3ccccc3)c2n1 (stereo not drawn) [IV-38]	
< 10	< 30	24.8 (≈ 96.4 µM)			Cc1cc(C)n2ccc(C(=O)NC(=O)C3CC3)c2n1 [III-74]	
10 to 20	> 60	14.9 (≈ 38 µM)			CCCO[C@H]1CC[C@H](NC(=O)c2ccn3c(C)cc(-c4cccnc4)nc23)CC1 [III-57]	
< 10	> 60	1.5 (≈ 5.04 µM)			Cc1nc2c(C(=O)NC(C)(C)C3CC3)ccn2c2c1CCC2 [III-72]	
10 to 20	> 60	9.4 (≈ 29.1 µM)			COc1cccc([C@H](C)NC(=O)c2ccn3c(C)cc(C)nc23)c1 [IV-33]	
			+++ (Gcase activation greater than 60%)	0.2	Cc1cc(C)n2ccc(C(=O)NC(C)c3cccc4ccccc34)c2n1 (stereo not drawn) [IV-26]	** (Gcase activation in the range of 10% up to 20%)
< 10	< 30				CCC(NC(=O)c1ccn2c(C)cc(C)nc12)c1nc2ccccc2[nH]1 (stereo not drawn) [IV-86]	

More lines, now with the values behind:

SMILES	activation at 0.1 µM [1] [%]	activation at 1 µM [1] [%]	solubility [2] [µg/mL]	Percent Gcase Activation 1 μM Test Compound [1]	Compound Solubility in Water [2] [µg/mL]	Percent Gcase Activation 0.1 μM Test Compound [1]
C[C@H](NC(=O)c1ccn2cc(-c3ccc(F)cc3)cnc12)C1CC1 [III-49]	< 10	< 30	0.3 (≈ 0.928 µM)			
Cc1cc(C)n2ccc(C(=O)NC(CC(C)C)C3CC3)c2n1 (stereo not drawn) [III-24]	> 20	> 60	10.9 (≈ 36.4 µM)			
COCc1cc(C)nc2c(C(=O)NC(C)(C)C3CC3)ccn12 [III 16]	> 20	> 60	19.8 (≈ 65.7 µM)			
Cc1cc(C)n2cc(C3CC3)c(C(=O)NC(C)(C)C3CC3)c2n1 [III-25]	< 10	30 to 60	0.3 (≈ 0.963 µM)			
Cc1cc(Cl)n2ccc(C(=O)NC(C)(C)C3CC3)c2n1 [III-12]	10 to 20	> 60	5.8 (≈ 19.9 µM)			
Cc1cc(C(F)F)n2ccc(C(=O)N[C@@H](C)C3CC3)c2n1 [III-8]	> 20	> 60	20.1 (≈ 68.5 µM)			
Cc1cc(C)n2ccc(C(=O)NC3(c4ccccc4)CC3)c2n1 [III-18]	10 to 20	> 60	7.7 (≈ 25.2 µM)			
Cc1cc(F)nc2c(C(=O)NC(C)(C)C3CC3)ccn12 [III-17]	10 to 20	> 60	6.3 (≈ 22.9 µM)			
Cc1cc(Br)nc2c(C(=O)NC(C)(C)C3CC3)ccn12 [III-14]	10 to 20	> 60	2.9 (≈ 8.62 µM)			
C[C@H](NC(=O)c1ccn2ccc(-c3ccc(F)cc3)nc12)C1CC1 [III-47]	< 10	30 to 60	0.1 (≈ 0.309 µM)			
COCc1cc(C)n2ccc(C(=O)NC(C)(C)C3CC3)c2n1 [III-15]	10 to 20	> 60	21.9 (≈ 72.7 µM)			
Cc1cc(-c2cocn2)nc2c(C(=O)N[C@H]3CCCc4ccccc43)ccn12 [III-28]	< 10	30 to 60	1.4 (≈ 3.76 µM)			
Cc1ccnc2c(C(=O)NC3(c4ccccc4OC4CC4)CC3)ccn12 [III-34]	< 10	30 to 60	6.3 (≈ 18.1 µM)			
CNc1cc(C)n2ccc(C(=O)NC(C)(C)C3CC3)c2n1 [III-10]	> 20	> 60	11 (≈ 38.4 µM)			
C[C@H](NC(=O)c1ccn2c(C(F)F)cc(C(F)F)nc12)C1CC1 [III-6]	10 to 20	> 60	33.5 (≈ 102 µM)			
Cc1cc(C)n2ccc(C(=O)NC(C)(C)CC3CC3)c2n1 [III-19]	> 20	> 60	14.7 (≈ 51.5 µM)			
Cc1cc(N2CCOCC2)nc2c(C(=O)NC(C)(C)C3CC3)ccn12 [III-35]	10 to 20	> 60	14 (≈ 40.9 µM)			
Cc1cc(C2CCOCC2)nc2c(C(=O)NC(C)(C)C3CC3)ccn12 [III-36]	< 10	30 to 60	21.3 (≈ 62.4 µM)			
CC(C)(NC(=O)c1ccn2ccc(-c3ccc(F)cc3)nc12)C1CC1 [III-46]	< 10	30 to 60	0.3 (≈ 0.889 µM)			
